Experimental findings from ChEMBL document CHEMBL1777674, “2,6-Disubstituted pyrazines and related analogs as NR2B site antagonists of the NMDA receptor with anti-depressant activity” (Bioorg Med Chem Lett, 2011) are described below.

≈ marks a conversion by molar mass, not a printed value.

The nature of data set [1]: Equilibrium solubility of the compound at pH 7.4. The class given is physicochemical. The note with it: buffer.
Data set [2] in a line: Intrinsic clearance in human liver microsomes. The data set is classed as ADME, Microsome. In general terms: Liver microsomes are a subcellular fraction often used to study metabolism.
Data set [3] is described as follows: Ratio of drug level in brain to plasma in mouse at 30 mg/kg, ip after 30 mins. The class given is ADME, organism-based. Further details: dose 30 mg/kg, route intraperitoneal. The conditions noted are these: read-out: BPR.
Data set [4] can be described thus: Ratio of drug level in brain to plasma in mouse at 10 mg/kg, ip after 30 mins. The class given is ADME, organism-based. Further details: dose 10 mg/kg, route intraperitoneal. The note with it: read-out: BPR.
Data set [5] is described as follows: Plasma concentration in mouse at 60 mg/kg, ip after 30 mins. The class given is ADME, organism-based. On the set-up: dose 60 mg/kg, route intraperitoneal.
A short description of data set [6]: Plasma concentration in mouse at 30 mg/kg, ip after 30 mins. Further details: dose 30 mg/kg, route intraperitoneal. The class given is ADME, organism-based.
Data set [7] is described as follows: Ratio of drug level in brain to plasma in mouse at 60 mg/kg, ip after 30 mins. The class given is ADME, organism-based. On the set-up: dose 60 mg/kg, route intraperitoneal. The conditions noted are these: read-out: BPR.
A short description of data set [8]: Plasma concentration in mouse at 10 mg/kg, ip after 30 mins. Further details: dose 10 mg/kg, route intraperitoneal. The data set is classed as ADME, organism-based.

As a reminder, the solubility (thermodynamic) is solubility found after equilibrating the solid with the medium. Usually microsomal CLint stands for the capacity of the preparation to metabolise the compound, expressed as a volume cleared per time. High values mean faster metabolism, low ones greater metabolic stability. In turn, `COc1cc(F)ccc1-c1cncc(CNCC2CC2)n1` yielded a solubility (thermodynamic) in data set [1] of 340 µM (≈ 97.7 µg/mL). The microsomal CLint in data set [2] came out at 108 µL/min/mg.
For `COc1cc(F)ccc1-c1cncc(CNC2CCCC2)c1`, the figures for the Kp at 0.5 h in data set [3], in data set [4] and in data set [7] were 13.6, 10.9 and 12.6, respectively. In addition, the concentration at 0.5 h in data set [5] was 3370 nM; in data set [6], 2320 nM; in data set [8] it was 867 nM. The thermodynamic solubility in data set [1] is greater than 450 µM. Further, the microsomal CLint in data set [2] came out at 74 µL/min/mg.
As for `COc1cc(F)ccc1-c1cncc(CNC(=O)c2cnccn2)c1`, in data set [1], the thermodynamic solubility came to 63 µM (≈ 21.3 µg/mL). The compound also came in with an intrinsic clearance (microsomal CLint) in data set [2] of 64 µL/min/mg.
As for `COc1cc(F)ccc1-c1cncc(CNC(=O)c2ccccn2)c1`, the microsomal CLint in data set [2] was 45 µL/min/mg.
`C[C@@H]([C@@H](O)c1ccc(O)cc1)N1CCC(O)(c2ccccc2)CC1` [TRAXOPRODIL] had a thermodynamic solubility in data set [1] greater than 470 µM. The microsomal CLint in data set [2] was determined as 37 µL/min/mg.
